Entries after “also recorded” stand apart in the source; their conditions may differ.
Key:
[1] = system: brain phosphodiesters; assay: Phosphorus-31 MR spectroscopy of lipid metabolite resonances during chronic CDP-choline administration; assay type: in vivo, human; conditions: 18 healthy subjects, mean age 70; 500 mg oral daily for 6 weeks, weeks 6-12 half continued, half placebo; p=0.008
Procedure: (§1) To assess whether chronic CDP-choline administration leads to detectable changes in lipid metabolite resonances in phosphorus-31 MR spectra, eighteen healthy subjects (mean age: 70) were administered 500 mg of an oral formulation of CDP-choline daily for a six week period. From weeks 6 to 12, half of the subjects continued to receive CDP-choline and half received placebo in a double-blind fashion. […] CDP-choline administration, therefore, improves measures of verbal fluency and spatial memory in healthy adults and results in increased brain phospholipid synthesis in older adults, particularly during chronic administration.

[2] = system: healthy subjects; assay: Neuropsychological testing during chronic CDP-choline administration; assay type: in vivo, human; conditions: across all subjects at week twelve, 500 mg oral daily
Procedure: as §1

[3] = system: depressed subjects; assay: 17-item Hamilton Depression Rating Scale (HDRS), eight weeks of treatment; assay type: in vivo, human
Procedure: (§2) In a second study, twelve depressed subjects (mean age 40) received 500 mg of an oral formulation of CDP-choline twice daily for eight weeks.

[4] = system: cytosolic choline resonance in the anterior cingulate cortex; assay: Proton MR spectroscopy of cytosolic choline resonance; assay type: in vivo, human; conditions: associated with a successful response; 500 mg twice daily, eight weeks
Procedure: as §2

[5] = system: rats; assay: Forced swim test (FST) with citicoline, cytidine and choline; assay type: in vivo, rat; conditions: IP; for antidepressant effects in the FST: citicoline 50-500 mg/kg, cytidine 23.8-238 mg/kg, choline 13.7-136.6 mg/kg (molar equivalent amounts)
Procedure: The effects of citicoline were examined in the forced swim test (FST), a rodent model of depression as described herein. Because citicoline is rapidly converted to cytidine and choline, their effects were also examined in the FST.
Forced Swim Test (FST): One hundred-sixty seven rats were used in the FST studies, which were conducted as described previously (Carlezon et al. Biol. Psychiatry 51:882-889, 2002) with minor modifications. The FST is a two-day procedure in which rats swim under conditions in which escape is not possible. On the first day, rats are placed in clear, 65 cm tall-25 cm diameter cylinders filled to 48 cm with 25° C. water. The rats initially struggle to escape from the water, but eventually they adopt a posture of immobility in which they make only the movements necessary to keep their heads above water. After 15 min of forced swimming, the rats are removed from the water, dried with towels, and placed in a warmed enclosure for 30 min. The cylinders are emptied and cleaned between rats. When the rats are re-tested 24 hours later under identical conditions in 5 min sessions, immobility is increased. Treatment with standard antidepressant drugs within the 24 hr period between the first exposure to forced swimming and re-testing can attenuate facilitated immobility, an effect correlated with antidepressant efficacy in humans (Porsolt et al. Nature 266:730-732 1977; Detke et al. Psychopharmacology 121:66-72 1995, Carlezon et al. Biol. Psychiatry 51:882-889, 2002).

[6] = cited from earlier work
[7] = ingestion of large amounts in preclinical studies; cited from earlier work
[8] = system: rats; assay: Locomotor activity after cytidine; assay type: in vivo, rat; conditions: 238 mg/kg, IP (optimally effective dose)
[9] = system: rats; assay: Conditioned rewarding effects of cytidine; assay type: in vivo, rat; conditions: 238 mg/kg, IP
[10] = system: male Sprague-Dawley rats; assay: Forced swim test (FST): latency to become immobile and behavioral sampling; assay type: in vivo, rat; conditions: re-test
Procedure: The behavioral effects of the combination of uridine and omega-3 fatty acids were also evaluated in rats using the forced swim test (FST). This assay identifies in rodents treatments that have antidepressant effects in humans (Porsolt et al. Nature 266:730-732 1977; Carlezon et al. Biol. Psychiatry 51:882-889, 2002). Uridine was administered using systemic injection while omega-3 fatty acids were administered by supplementation within the diet for various periods of time (3, 10, or 30 days). The effects of uridine in rats maintained on the omega-3 fatty acid-enriched diet were also evaluated to determine if these effects were additive. […] The efficacy of each treatment in the FST was evaluated using two separate scoring methods: latency to become immobile, a simple and rapid method that identifies agents with antidepressant effects ([…] et al. J Neurosci 21:7397-7403 2001), and behavioral sampling, a more complex method that differentiates antidepressant drugs according to their pharmacological mechanisms (Detke et al. Psychopharmacology 121:66-72 1995). Finally, treatments with antidepressant-like effects in the FST were evaluated for non-specific effects on activity in an open field, which might complicate interpretation of the data from the swimming studies. Rats: A total of 197 male Sprague-Dawley rats (Charles River Laboratories, Boston Mass.) were used in these studies. The rats were housed in groups of four and weighed 325-375 gm at the time of behavioral testing. Rats were maintained on a 12 h light (0700-1900 h)-12 h dark cycle with free access to food and water except during testing. Experiments were conducted in accordance with the 1996 Guide for the Care and Use of Laboratory Animals (NIH) and McLean Hospital policies. Drugs: Dosages of desipramine HCl (DMI), fluoxetine HCl (FLX), citalopram HBr (CIT), and uridine (URI) were administered in a distilled water vehicle (VEH) at a volume of 1 cc/kg. All drugs were purchased from RBI-Sigma (St. Louis, Mo.) except CIT, which was a gift of Forest Laboratories (New York, N.Y.). […] The diets were equivalent in overall fat, protein, carbohydrate, and caloric content. Forced Swim Test (FST): One hundred-sixty seven rats were used in the FST studies, which were conducted as described previously (Carlezon et al. Biol. Psychiatry 51:882-889, 2002) with minor modifications. The FST is a two-day procedure in which rats swim under conditions in which escape is not possible. On the first day, rats are placed in clear, 65 cm tall-25 cm diameter cylinders filled to 48 cm with 25° C. water. The rats initially struggle to escape from the water, but eventually they adopt a posture of immobility in which they make only the movements necessary to keep their heads above water. After 15 min of forced swimming, the rats are removed from the water, dried with towels, and placed in a warmed enclosure for 30 min. The cylinders are emptied and cleaned between rats. When the rats are re-tested 24 hours later under identical conditions in 5 min sessions, immobility is increased. Treatment with standard antidepressant drugs within the 24 hr period between the first exposure to forced swimming and re-testing can attenuate facilitated immobility, an effect correlated with antidepressant efficacy in humans (Porsolt et al. Nature 266:730-732 1977; Detke et al. Psychopharmacology 121:66-72 1995, Carlezon et al. Biol. Psychiatry 51:882-889, 2002). Rats tested with DMI, FLX, CIT, or URI received 3 separate intraperitoneal (IP) injections of drug (or VEH), at 1 hr, 19 hr, and 23 hr after the first exposure to forced swimming. This commonly used regimen is sensitive to the antidepressant-like effects of many standard agents (Porsolt et al. Nature 266:730-732 1977; Detke et al. Psychopharmacology 121:66-72 1995; Carlezon et al. Biol. Psychiatry 51:882-889, 2002). […] There were 7-12 rats per treatment condition, and separate rats were used for each treatment regimen. […]

[11] = Weights of the rats at the time of the re-test; assay type: in vivo, rat; conditions: FST studies
Procedure: Rats: A total of 197 male Sprague-Dawley rats (Charles River Laboratories, Boston Mass.) were used in these studies. The rats were housed in groups of four and weighed 325-375 gm at the time of behavioral testing. Rats were maintained on a 12 h light (0700-1900 h)-12 h dark cycle with free access to food and water except during testing. Experiments were conducted in accordance with the 1996 Guide for the Care and Use of Laboratory Animals (NIH) and McLean Hospital policies.

[12] = eight weeks, CDP-choline 500 mg twice daily, fluoxetine 20 mg/day

Structure (SMILES): C[N+](C)(C)CCOP(=O)(O)OP(=O)([O-])OC[C@H]1O[C@@H](n2ccc(N)nc2=O)[C@H](O)[C@@H]1O [CDP-choline, cytidine 5′-diphosphocholine]
- brain phosphodiesters (phosphorus-31 MR) [1]: significant increase
- visuospatial learning ([2]; p=0.0001): increases
- verbal learning ([2]; p=0.003): increases
- verbal fluency ([2]; p=0.07): increases
- mean 17-item HDRS score with eight weeks of treatment ([3]; CDP-choline 500 mg oral twice daily, fluoxetine open label 20 mg/day, p<0.0001): 10±7
- mean 17-item HDRS score before treatment ([3]; baseline, CDP-choline 12 subjects, fluoxetine 41 subjects): 21±3
- complete responses (subjects/total) [3, 12]: 6/12
- complete responses, share of subjects [3, 12]: 50%
- proton MR spectroscopic cytosolic choline resonance in the anterior cingulate cortex [4]: reduction
- antidepressant effects in the FST [5]: did not have antidepressant effects
- effect in the FST at high doses ([5]; high doses of citicoline): small pro-depressant effects
- CDP-choline and/or its metabolites absorbed ([6]; orally administered): more than 99%
- excreted in feces ([6]; orally administered): less than 1%
- excretion route lung ([6]; share of dose): 12.9%
- excretion route urine ([6]; share of dose): 2.4%
- rest of the dose metabolized and retained in tissues ([6]; share of dose): 83.9%
- toxicity symptoms [7]: common cholinergic symptoms

Structure (SMILES): Nc1ccn([C@@H]2O[C@H](CO)[C@@H](O)[C@H]2O)c(=O)n1 [cytidine]
- antidepressant effects in the FST [5]: significant antidepressant effects
- locomotor activity [8]: did not affect locomotor activity
- conditioned rewarding effects [9]: did not affect locomotor activity or establish conditioned rewarding effects

Structure (SMILES): O=c1ccn([C@@H]2O[C@H](CO)[C@@H](O)[C@H]2O)c(=O)[nH]1 [URI, uridine]
- latency to become immobile ([10]; URI 71.7 mg/kg IP): not
- latency to become immobile ([10]; URI 130 mg/kg IP): not
- immobility ([10]; URI 239 mg/kg IP): reduced immobility
- latency to become immobile ([10]; URI 239 mg/kg IP): increased latencies
- swimming behaviors ([10]; URI 239 mg/kg IP): increased swimming behaviors
- latency to become immobile, effect over doses ([10]; URI alone 71.7, 130, 239 mg/kg IP): dose-dependent effects; also recorded: dose-dependently increased latencies to become immobile
- occurrences of climbing ([10]; URI alone 71.7-239 mg/kg IP): without affecting climbing
- occurrences of immobility, effect over doses ([10]; URI alone 71.7-239 mg/kg IP): significantly affected; also recorded: dose-dependently decreased immobility
- occurrences of swimming, effect over doses ([10]; URI alone 71.7-239 mg/kg IP): significantly affected; also recorded: increased swimming
- weights of the rats [11]: did not affect
